Measurements taken from patent publication US20090149540A1, “Compositions and Methods for Attenuating Mitochondria-Mediated Cell Injury” (priority 2005, published 2009).

Assays:
[1] = tested on: entire mitochondrial protein extract; experiment: Biotin-switch analysis of mitochondrial protein S-nitrosation; format: biochemical, rat; details: for S-nitrosation of mitochondrial protein, comparison of NO* donors: entire mitochondrial protein extract
Procedure: (§1) Rat heart mitochondria were isolated using differential centrifugation (Tompkins, et al. (2005) Biochim. Biophys. Acta PMID: 16278076). Protein was determined by the Folin-phenol method (Lowry, et al. (1951) J. Bio. Chem. 193:265-75) against a standard curve constructed using bovine serum albumin. Mitochondrial incubations and all subsequent steps were performed in the dark. One mg of mitochondrial protein was suspended in 1 mL of mitochondrial respiration buffer (Tompkins, et al. (2005) supra) containing respiratory substrates glutamate (5 mM), malate (2.5 mM) and succinate (5 mM). […] Samples were centrifuged (5 minutes, 14,000×g), and supernatants removed. The pellets were then resuspended in 1 mL of respiration buffer, and centrifuged again. Pellets were frozen in liquid N2 for subsequent analysis. For ONOO^− treatments, 4 μL of 25 mM ONOO^− stock (100 μM final concentration) was added the cap of the reaction tube, the cap quickly closed and the tube shaken immediately. The process was then repeated twice at 30 second intervals, for a total of 3 additions. Mitochondria were then pelleted, washed, and frozen as for S-nitrosoglutathione samples. Complex I activity was assayed as the rotenone-sensitive oxidation of NADH, at 340 nm in the presence of coenzyme Q1 (Borutaite, et al. (2000) supra). Complex IV was assayed by monitoring the cyanide-sensitive first-order oxidation of reduced cytochrome c, at 550 nm according to established methods (Cleeter, et al. (1994) supra).
For biotin-switch analysis, intact mitochondrial pellets (1 mg protein solubilized in extraction buffer) or chromatography column fractions were analyzed in accordance with known methods (Jaffrey & Snyder (2001) supra). Samples were separated in duplicate on non-reducing SDS-PAGE gels; half the gel was stained with COOMASSIE® blue, and the other half blotted and probed with streptavidin-HRP and ECL™ detection (GE biosciences) Blots and stained gels were aligned, and S-nitrosated proteins excised, trypsinized, and identified by peptide mass fingerprinting. Mass spectra (MALDI-TOF) were analyzed using the MASCOT™ algorithm available on the world-wide web at matrixscience.com.

mitochondrial complex I = biological target: T1, mitochondrial complex I (Rattus norvegicus, UniProt Q66HF1); experiment: Complex I activity (rotenone-sensitive NADH/Co-Q1 oxidation/reduction) in treated mitochondria; format: biochemical; details: S-nitrosoglutathione treatment of mitochondria; exposure to light
T1 construct: Rat heart mitochondria were isolated using differential centrifugation; from tissue; host or cells: rat heart mitochondria (male Sprague-Dawley rats)
T1 sequence (Q66HF1 24-727, one chain of several): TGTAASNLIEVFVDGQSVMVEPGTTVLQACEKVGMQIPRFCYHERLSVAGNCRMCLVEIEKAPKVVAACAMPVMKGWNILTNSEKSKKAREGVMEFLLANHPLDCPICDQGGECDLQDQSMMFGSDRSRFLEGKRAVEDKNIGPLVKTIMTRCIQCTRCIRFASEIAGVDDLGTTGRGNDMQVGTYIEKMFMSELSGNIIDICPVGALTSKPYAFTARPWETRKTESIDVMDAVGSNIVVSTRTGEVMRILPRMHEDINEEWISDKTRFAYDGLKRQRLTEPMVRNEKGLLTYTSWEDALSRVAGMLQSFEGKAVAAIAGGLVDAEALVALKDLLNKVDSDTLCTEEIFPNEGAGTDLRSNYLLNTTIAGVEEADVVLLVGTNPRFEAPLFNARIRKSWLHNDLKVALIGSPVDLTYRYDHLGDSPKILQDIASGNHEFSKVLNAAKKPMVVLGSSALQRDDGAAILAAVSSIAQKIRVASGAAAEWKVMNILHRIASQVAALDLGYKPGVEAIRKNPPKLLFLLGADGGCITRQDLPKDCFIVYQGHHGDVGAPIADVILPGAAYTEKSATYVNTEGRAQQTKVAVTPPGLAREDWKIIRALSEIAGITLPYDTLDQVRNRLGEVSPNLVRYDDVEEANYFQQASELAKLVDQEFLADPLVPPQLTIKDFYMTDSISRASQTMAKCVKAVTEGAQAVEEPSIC
Description: Assuming heart mitochondria contain ˜50 pmol complex I per mg protein (Schagger & Pfeiffer (2001) J. Biol. Chem. 276:37861-37867), it was observed that S-nitrosation plateaud at a ˜7:1 mol/mol ratio (i.e., 7 mols S-nitrosothiol per mol complex I), while maximum complex I inhibition was ˜20-25%. This apparent mis-match between the stoichiometry of S-nitrosation (7:1) and the degree of inhibition (25%) may reflect S-nitrosation of complex I on multiple subunits. Alternatively, since the spectrophotometric complex I activity assay was performed at 340 nm, close to the absorption maxima of S-nitrosothiols (335 nm), S-nitrosothiols within complex I may have been destroyed during the assay, leading to underestimation of inhibition by S-nitrosation.
Rat heart mitochondria were isolated using differential centrifugation (Tompkins, et al. (2005) Biochim. Biophys. Acta PMID: 16278076). Protein was determined by the Folin-phenol method (Lowry, et al. (1951) J. Bio. Chem. 193:265-75) against a standard curve constructed using bovine serum albumin. Mitochondrial incubations and all subsequent steps were performed in the dark. One mg of mitochondrial protein was suspended in 1 mL of mitochondrial respiration buffer (Tompkins, et al. (2005) supra) containing respiratory substrates glutamate (5 mM), malate (2.5 mM) and succinate (5 mM). […]

isolated mitochondria = experiment: Chemiluminescent NO analysis of total S-nitrosothiol in isolated mitochondria; format: biochemical, rat
Procedure: At concentrations above 250 μM, secondary reactions such as free S-nitrosothiol or NO2^− formation were observed.
as §1
Chemiluminescent analysis of S-nitrosothiol content was performed on samples originating from blue-native gels, intact mitochondria and SUPEROSE™ 6 chromatography fractions, according to known methodologies (Yang, et al. (2003) Free Radic. Res. 37:1-10). […] Each sample was run in duplicate and quantified using a standard curve created with known concentrations of NaNO2.

[2] = tested on: isolated adult rat cardiomyocytes; experiment: Cardiomyocyte model of ischemia-reperfusion injury, cell viability by Trypan blue exclusion; format: cell-based; details: 10 μM or 20 μM; 1 hour ischemia, 30 minutes reoxygenation
Procedure: Isolated adult rat cardiomyocytes were subjected to 1 hour ischemia (anoxic, glucose free medium, pH 6.5) followed by 30 minutes reoxygenation (labeled “HR”). Cell viability was assayed by Trypan blue exclusion. […] All data are means±SEM, N>3.
Adult rat cardiomyocytes were prepared by collagenase perfusion according to standard methods (Dai, et al. (2001) supra), yielding ˜4×10^6 cells per heart, >80% rod-shaped and viable. Incubations were in a shaking water bath at 37° C., each utilizing 5×10^5 cells in 5 mL of the KH buffers described below. For the control, cells were incubated for 2 hours in oxygenated KH buffer (95/5 O2/CO2). For ischemia-reperfusion treatment, cells were subjected to 30 minutes in oxygenated KH buffer, 1 hour in “ischemic” KH buffer (95/5 N2/CO2, pH 6.5, no glucose), and 30 minutes in oxygenated KH buffer. For the ischemia-reperfusion injury and test compound group of cells, ischemia-reperfusion injury was carried out as described above with test compound present during the 30 minute equilibration prior to ischemia-reperfusion and absent during ischemia. […] At the end of each protocol, cell viability was assayed (Trypan blue), and mitochondrial function determined (measurement of ΔΨm with the fluorescent probe TMRE, respiration with an O2 electrode, and S-nitrosothiol content by chemiluminescence and biotin-switch.

[3] = radioactive tracer studies in whole animals; cited from earlier work

In the case of NCCN(CCN)/[N+]([O-])=N/O [DETA-NONOate], the “S-nitrosation of mitochondrial protein, comparison of NO* donors” value (“S-nitrosation … of NO* donors” for short) [1] is reported as “S-nitrosoglutathione resulted in far more S-nitrosation than DETA-NONOate”.
For N[C@@H](CCC(=O)N[C@@H](CSN=O)C(=O)NCC(=O)O)C(=O)O [S-nitrosoglutathione], the “complex I inhibition and its reversibility” value (mitochondrial complex I) was “complex I inhibition that was reversible by exposure of mitochondria to light”, the “concentration at which formation of protein bound S-nitrosothiol saturates” value ([1]; biotin-switch and chemiluminescent data together) was roughly 250 µM and the “concentration at which plateau of mitochondrial protein S-nitrosation is reached” value ([1]; dose response over the range 50-250 μM) was roughly 200 µM. For the same compound, the “S-nitrosation … of NO* donors” value [1] was “far more S-nitrosation than DETA-NONOate or ONOO^−”, the “concentration at which total S-nitrosothiol (free plus protein-bound) approaches saturation” value (isolated mitochondria; 10 μM to 1 mM) was roughly 300 µM and the total S-nitrosothiol (isolated mitochondria; 100 μM treatment) was ~1700 pmol/mg mitochondrial protein. For the same compound, the “concentrations at which secondary reactions such as free S-nitrosothiol or NO2− formation were observed” value (isolated mitochondria; isolated mitochondria) was “above 250 μM”.
With O=NOO [ONOO^−, peroxynitrite] the “S-nitrosation … of NO* donors” value [1] was “S-nitrosoglutathione resulted in far more S-nitrosation than DETA-NONOate or ONOO^−”.
In the case of CC(SN=O)C(=O)NCC(=O)O (stereo not drawn) [S-nitroso-2-mercaptopropylglycine], the “S-nitrosation of mitochondrial proteins compared with S-nitrosoglutathione” value ([1]; same concentrations, 10-100 μM) is reported as “much greater degree of S-nitrosation of mitochondrial proteins than did S-nitrosoglutathione” and the “protection of cardiomyocyte viability from ischemia-reperfusion injury” value [2] is reported as “significant protection of cardiomyocytes from ischemia-reperfusion injury”.
For CC(S)C(=O)NCC(=O)O (stereo not drawn) [2-Mercaptopropionylglycine], the “cell entry and mitochondrial accumulation” value [3] is listed as “readily enters cells and accumulates in mitochondria”.
